≈ marks a conversion by molar mass, not a printed value. Where “and” joins values, the source holds several entries; their conditions need not be identical. Equal entries are not always repeated.
How the values were obtained:
Test in all cases: ≥ marks a high value that may be exact or a test limit, other limits are often not marked, values filed in µg/mL are converted to µM
Staphylococcus aureus = system: Staphylococcus aureus
Escherichia coli = system: Escherichia coli
Pseudomonas aeruginosa = system: Pseudomonas aeruginosa
Staphylococcus aureus MR = system: Staphylococcus aureus MR
[1] = system: Escherichia coli NCTC 10418
[2] = system: Staphylococcus aureus NCTC 10788
Escherichia coli MG1655 = system: Escherichia coli MG1655
[3] = system: Staphylococcus aureus ATCC 29213
Salmonella typhimurium = system: Salmonella typhimurium
Candida albicans = system: Candida albicans

Row | SMILES | MIC (Staphylococcus aureus) | MIC (Escherichia coli) | MIC (Pseudomonas aeruginosa) | MIC (Staphylococcus aureus MR) | also measured
1 | CC[C@H](C)[C@H](NC(=O)[C@H](C)NC(=O)[C@H](CC(C)C)NC(=O)[C@H](Cc1ccc(O)cc1)NC(=O)[C@H](CC(C)C)NC(=O)[C@H](C)N)C(=O)N[C@@H](CCCN=C(N)N)C(=O)N[C@@H](CCCCN)C(=O)N[C@@H](CCCN=C(N)N)C(N)=O [ALYLAIRKR] | 2.72 µM (≈ 3 µg/mL) | 3.63 µM (≈ 4 µg/mL) | 3.63 µM (≈ 4 µg/mL) | 27.2 µM (≈ 30 µg/mL) | 
2 | CC[C@H](C)[C@H](NC(=O)CNC(=O)[C@H](C)NC(=O)[C@@H](NC(=O)[C@H](C)NC(=O)[C@@H]1CCCN1C(=O)[C@H](CC(C)C)NC(=O)[C@@H](N)Cc1ccccc1)[C@@H](C)CC)C(=O)N[C@@H](CC(C)C)C(=O)N[C@@H](CO)C(=O)N[C@@H](CCC(N)=O)C(=O)N[C@@H](CC(C)C)C(=O)N[C@@H](Cc1ccccc1)C(N)=O [FLPAIAGILSQLF] |  |  |  |  | MIC [1]: ≥ 50 µM; MIC [2]: ≥ 200 µM
3 | CC[C@H](C)[C@H](NC(=O)CNC(=O)[C@@H]1CCCN1C(=O)[C@H](CC(C)C)NC(=O)[C@@H](N)Cc1ccccc1)C(=O)N[C@@H](CC(C)C)C(=O)N[C@@H](CCCCN)C(=O)N[C@H](C(=O)N[C@@H](C)C(=O)N[C@@H](C)C(=O)N[C@@H](CC(N)=O)C(=O)N[C@H](C(=O)N[C@H](C(=O)N1CCC[C@H]1C(=O)NCC(=O)N[C@H](C(=O)N[C@H](C(=O)N[C@H]1CSSC[C@@H](C(=O)O)NC(=O)[C@H](CCCCN)NC(=O)[C@H](CCCCN)NC(=O)[C@H]([C@@H](C)O)NC(=O)[C@H]([C@@H](C)CC)NC(=O)[C@H](C)NC1=O)[C@@H](C)CC)C(C)C)C(C)C)C(C)C)C(C)C [FLPGILKVAANVVPGVICAITKKC] |  |  |  |  | MIC [1]: ≥ 256 µM; MIC [2]: 4 µM and 8 µM
4 | CC[C@H](C)[C@H](NC(=O)[C@@H](NC(=O)[C@@H]1CCCN1C(=O)[C@@H](NC(=O)[C@@H](NC(=O)[C@H](Cc1cnc[nH]1)NC(=O)[C@@H]1CCCN1C(=O)[C@H](CC(C)C)NC(=O)[C@@H](NC(=O)[C@H](Cc1cnc[nH]1)NC(=O)[C@H](CCCCN)NC(=O)[C@H](C)NC(=O)[C@@H](NC(=O)[C@H](CO)NC(=O)CNC(=O)[C@H](CC(C)C)NC(=O)[C@@H](NC(=O)[C@H](CO)NC(=O)[C@H](CC(C)C)NC(=O)[C@H](CC(C)C)NC(=O)CN)C(C)C)C(C)C)C(C)C)C(C)C)C(C)C)C(C)C)C(=O)N[C@@H](C)C(=O)N[C@@H](CCC(=O)O)C(=O)N[C@@H](Cc1cnc[nH]1)C(=O)N[C@@H](CC(C)C)C(N)=O [GLLSVLGSVAKHVLPHVVPVIAEHL] |  |  |  |  | MIC (Escherichia coli MG1655): ≥ 120 µM; MIC [3]: 8 µM (≈ 20.7 µg/mL)
5 | CC[C@H](C)[C@H](N)C(=O)N[C@@H](CC(C)C)C(=O)N1CCC[C@H]1C(=O)N[C@@H](Cc1c[nH]c2ccccc12)C(=O)N[C@@H](CCCCN)C(=O)N[C@@H](Cc1c[nH]c2ccccc12)C(=O)N1CCC[C@H]1C(=O)N[C@@H](Cc1c[nH]c2ccccc12)C(=O)N[C@@H](C)C(=O)N1CCC[C@H]1C(=O)N[C@@H](C)C(=O)N[C@@H](CCCN=C(N)N)C(=O)N[C@@H](CCCN=C(N)N)C(N)=O [ILPWKWPWAPARR] | 11.9 µM (≈ 20 µg/mL) | 119 µM (≈ 200 µg/mL) | 23.9 µM (≈ 40 µg/mL) |  | MIC (Salmonella typhimurium): 11.9 µM (≈ 20 µg/mL); MIC (Candida albicans): 0.0012 µM (≈ 0.00201 µg/mL)

Now from value to compound, other results behind:

Row | MIC (Staphylococcus aureus) | MIC (Escherichia coli) | MIC (Pseudomonas aeruginosa) | MIC (Staphylococcus aureus MR) | SMILES | also measured
6 | 3.55 µM (≈ 4 µg/mL) | 8.88 µM (≈ 9.99 µg/mL) | 8.88 µM (≈ 9.99 µg/mL) | ≥ 35.5 µM | CC[C@H](C)[C@H](NC(=O)[C@H](C)NC(=O)[C@H](CC(C)C)NC(=O)[C@H](Cc1c[nH]c2ccccc12)NC(=O)[C@H](CC(C)C)NC(=O)[C@H](C)N)C(=O)N[C@@H](CCCN=C(N)N)C(=O)N[C@@H](CCCCN)C(=O)N[C@@H](CCCN=C(N)N)C(N)=O [ALWLAIRKR] | 
7 | 60.8 µM (≈ 95.9 µg/mL) |  |  | ≥ 63.4 µM | CC(C)C[C@H](NC(=O)[C@@H](NC(=O)[C@H](CCCN=C(N)N)NC(=O)[C@H](CCCN=C(N)N)NC(=O)[C@@H](NC(=O)[C@@H](NC(=O)[C@H](CCCN=C(N)N)NC(=O)[C@H](CCCN=C(N)N)NC(=O)[C@@H](NC(=O)[C@H](CC(C)C)NC(=O)[C@@H](N)CCCN=C(N)N)C(C)C)C(C)C)C(C)C)C(C)C)C(=O)N[C@@H](CCCN=C(N)N)C(N)=O [RLVRRVVRRVLR] | 

Source: DBAASP
